Earlier results on one substance are cited in patent publication US20240368046A1, “UREA-BASED C[…] WITH AN INORGANIC ACID” (Y ara International ASA, priority 2021, published 2024).

As for urea sulphate, the pKa result is listed as “about 1.5”.
